Data taken from ChEMBL document CHEMBL4346657, “Anticancer activity, dual prooxidant/antioxidant effect and apoptosis induction profile of new bichalcophene-5-carboxamidines” (Eur J Med Chem, 2019).
Active and inactive are the calls of the source. The rule behind the calls is not given here.

Experiments:
[1] = system: 786-0; experiment: Antiproliferative activity against human 786-0 cells assessed as growth inhibition after 48 hrs by sulforhodamine B assay; format: functional; conditions: 786-0, 48 h
[2] = system: UACC-257; experiment: Antiproliferative activity against human UACC257 cells assessed as growth inhibition after 48 hrs by sulforhodamine B assay; format: functional; conditions: UACC-257, 48 h
[3] = system: TK-10; experiment: Antiproliferative activity against human TK10 cells assessed as growth inhibition after 48 hrs by sulforhodamine B assay; format: functional; conditions: TK-10, 48 h
[4] = system: WI-38; experiment: Cytotoxicity activity against human WI38 cells assessed as reduction in cell viability measured after 48 hrs by MTT assay; format: cell-based; conditions: WI-38, 48 h
[5] = system: Hs-578T; experiment: Antiproliferative activity against human Hs578T cells assessed as growth inhibition after 48 hrs by sulforhodamine B assay; format: functional
[6] = system: SK-MEL-5; experiment: Antiproliferative activity against human SK-MEL-5 cells assessed as growth inhibition after 48 hrs by sulforhodamine B assay; format: functional; conditions: SK-MEL-5, 48 h
[7] = system: A549; experiment: Antiproliferative activity against human A549/ATCC cells assessed as growth inhibition after 48 hrs by sulforhodamine B assay; format: functional; conditions: A549, 48 h
[8] = system: MCF7; experiment: Antiproliferative activity against human MCF7 cells assessed as growth inhibition after 48 hrs by sulforhodamine B assay; format: functional; conditions: MCF7, 48 h
[9] = system: BT-549; experiment: Antiproliferative activity against human BT549 cells assessed as growth inhibition after 48 hrs by sulforhodamine B assay; format: functional; conditions: BT-549, 48 h
[10] = Haemolytic activity in human erythrocytes assessed as induction of hemolysis at 10 mM after 30 mins relative to H202; format: cell-based, Erythrocyte; conditions: read-out: Activity
[11] = system: SF-539; experiment: Antiproliferative activity against human SF539 cells assessed as growth inhibition after 48 hrs by sulforhodamine B assay; format: functional; conditions: SF-539, 48 h
[12] = system: SNB-75; experiment: Antiproliferative activity against human SNB75 cells assessed as growth inhibition after 48 hrs by sulforhodamine B assay; format: functional; conditions: SNB-75, 48 h
[13] = system: Erythrocyte; experiment: Haemolytic activity in human erythrocytes assessed as induction of hemolysis at 0.625 mM after 30 mins relative to H202; format: cell-based; conditions: erythrocyte, 0.5 h, 625 µM
[14] = system: COLO 205; experiment: Antiproliferative activity against human COLO205 cells assessed as growth inhibition after 48 hrs by sulforhodamine B assay; format: functional; conditions: COLO 205, 48 h
[15] = system: CCRF-CEM; experiment: Antiproliferative activity against human CCRF-CEM cells assessed as growth inhibition after 48 hrs by sulforhodamine B assay; format: functional
[16] = system: MDA-MB-435; experiment: Antiproliferative activity against human MDA-MB-435 cells assessed as growth inhibition after 48 hrs by sulforhodamine B assay; format: functional; conditions: MDA-MB-435, 48 h
[17] = system: K562; experiment: Antiproliferative activity against human K562 cells assessed as growth inhibition after 48 hrs by sulforhodamine B assay; format: functional, cell-based; conditions: K562, 48 h, read-out: IC50
[18] = system: SK-MEL-28; experiment: Antiproliferative activity against human SK-MEL-28 cells assessed as growth inhibition after 48 hrs by sulforhodamine B assay; format: functional; conditions: SK-MEL-28, 48 h
[19] = system: IGROV-1; experiment: Antiproliferative activity against human IGROV1 cells assessed as growth inhibition after 48 hrs by sulforhodamine B assay; format: functional; conditions: IGROV-1, 48 h
[20] = system: NCI-H522; experiment: Antiproliferative activity against human NCI-H522 cells assessed as growth inhibition after 48 hrs by sulforhodamine B assay; format: functional; conditions: NCI-H522, 48 h
[21] = system: NCI/ADR-RES; experiment: Antiproliferative activity against human NCI-ADR-RES cells assessed as growth inhibition after 48 hrs by sulforhodamine B assay; format: functional
[22] = system: MDA-MB-231; experiment: Antiproliferative activity against human MDA-MB-231/ATCC cells assessed as growth inhibition after 48 hrs by sulforhodamine B assay; format: functional; conditions: MDA-MB-231, 48 h
[23] = system: Erythrocyte; experiment: Haemolytic activity in human erythrocytes assessed as induction of hemolysis at 1.25 mM after 30 mins relative to H202; format: cell-based; conditions: erythrocyte, 0.5 h, 1250 µM
[24] = system: MOLT-4; experiment: Antiproliferative activity against human MOLT4 cells assessed as growth inhibition after 48 hrs by sulforhodamine B assay; format: functional; conditions: MOLT-4, 48 h
[25] = system: NCI-H322M; experiment: Antiproliferative activity against human NCI-H322M cells assessed as growth inhibition after 48 hrs by sulforhodamine B assay; format: functional
[26] = system: OVCAR-4; experiment: Antiproliferative activity against human OVCAR4 cells assessed as growth inhibition after 48 hrs by sulforhodamine B assay; format: functional; conditions: OVCAR-4, 48 h
[27] = system: NCI-H226; experiment: Antiproliferative activity against human NCI-H226 cells assessed as growth inhibition after 48 hrs by sulforhodamine B assay; format: functional; conditions: NCI-H226, 48 h
[28] = system: RPMI-8226; experiment: Antiproliferative activity against human RPMI8226 cells assessed as growth inhibition after 48 hrs by sulforhodamine B assay; format: functional; conditions: RPMI-8226, 48 h
[29] = system: U-251; experiment: Antiproliferative activity against human U251 cells assessed as growth inhibition after 48 hrs by sulforhodamine B assay; format: functional; conditions: U-251, 48 h
[30] = system: HCT-116; experiment: […] in CDK1 mRNA expression in human HCT116 cells at 100 nM after 6 hrs hrs by SYBR green dye-based qRT-PCR analysis relative to control; format: functional
[31] = system: SW-620; experiment: Antiproliferative activity against human SW620 cells assessed as growth inhibition after 48 hrs by sulforhodamine B assay; format: functional; conditions: SW-620, 48 h
[32] = Antioxidant activity assessed as ABTS radical scavenging activity by spectrophotometric method relative to ascorbic acid; format: functional
[33] = system: SK-MEL-2; experiment: Antiproliferative activity against human SK-MEL-2 cells assessed as growth inhibition after 48 hrs by sulforhodamine B assay; format: functional; conditions: SK-MEL-2, 48 h
[34] = Haemolytic activity in human erythrocytes assessed as induction of hemolysis at 5 mM after 30 mins relative to H202; format: cell-based, Erythrocyte; conditions: read-out: Activity
[35] = system: Panel NCI-60 (60 carcinoma cell lines); experiment: Antiproliferative activity against human NCI60 cells assessed as growth inhibition at 10 uM after 48 hrs by sulforhodamine B assay; format: functional; conditions: read-out: GI
[36] = system: Malme-3M; experiment: Antiproliferative activity against human MALME-3M cells assessed as growth inhibition after 48 hrs by sulforhodamine B assay; format: functional
[37] = system: MDA-MB-468; experiment: Antiproliferative activity against human MDA-MB-468 cells assessed as growth inhibition after 48 hrs by sulforhodamine B assay; format: functional; conditions: MDA-MB-468, 48 h
[38] = Pro-oxidant activity assessed as increase in bleomycin-Fe2+ induced calf thymus DNA damage at 2 mM after 1 hr by thiobarbituric acid based absorbance analysis
[39] = system: HCC 2998; experiment: Antiproliferative activity against human HCC2998 cells assessed as growth inhibition after 48 hrs by sulforhodamine B assay; format: functional; conditions: HCC 2998, 48 h
[40] = system: HCT-116; experiment: Antiproliferative activity against human HCT116 cells assessed as growth inhibition after 48 hrs by sulforhodamine B assay; format: functional; conditions: HCT-116, 48 h
[41] = Antioxidant activity assessed as DPPH radical scavenging activity incubated in dark for 30 mins by spectrophotometric method relative to control; format: functional; parameters: concentration or dose not given beside the values
[42] = system: SNB-19; experiment: Antiproliferative activity against human SNB19 cells assessed as growth inhibition after 48 hrs by sulforhodamine B assay; format: functional; conditions: SNB-19, 48 h

With N=C(N)c1ccc(-c2ccc(-c3ccc4ccccc4c3)s2)s1 the GI50 [1] was 2.14 µM, the GI50 [2] was 16.1 µM and the GI50 [3] was 2.23 µM. For the same compound, the IC50 [4] was 81.3 µM, the GI50 [5] was 2.07 µM and the GI50 [6] was 14.7 µM. For the same compound, the GI50 [7] was 2.03 µM, the GI50 [8] was 1.75 µM and the GI50 [9] was 17.6 µM. The hemolysis at 0.5 h, 10000 µM [10] was 21.1%, the GI50 [11] was 1.97 µM and the GI50 [12] was 1.93 µM. The Activity [13] was “Non-Toxic”, the GI50 [14] was 1.63 µM and the GI50 [15] was 1.87 µM. It also gave a GI50 [16] of 1.91 µM, an IC50 [17] of 1.53 µM and a GI50 [18] of 2.25 µM. For the same compound, the GI50 [19] was 2.16 µM, the GI50 [20] was 1.96 µM and the GI50 [21] was 2.02 µM. For the same compound, the GI50 [22] was 1.85 µM, the Activity [23] was “Non-Toxic” and the GI50 [24] was 1.47 µM. It also gave a GI50 [25] of 1.64 µM, a GI50 [26] of 1.91 µM and a GI50 [27] of 33.6 µM. The GI50 [28] was 2.3 µM, the GI50 [29] was 1.81 µM and the “fold change (FC)” value [30] was 0.93. For the same compound, the GI50 [31] was 1.91 µM, the fold change (FC) [32] was 0.8 and the GI50 [33] was 2.52 µM. The hemolysis at 0.5 h, 5000 µM [34] was 13%, the inhibition of growth at 10 µM [35] was 96.7% and the GI50 [36] was 3.1 µM. For the same compound, the GI50 [37] was 2.38 µM, the Activity [38] was “Active” and the GI50 [39] was 2.02 µM. For the same compound, the GI50 [40] was 1.77 µM, the inhibition [41] was 54.6% and the GI50 [42] was 1.95 µM.
Compound N=C(N)c1ccc(-c2ccc(-c3ccc(Cl)cc3)o2)o1 has a GI50 [1] of 1.85 µM, a GI50 [2] of 1.99 µM and a GI50 [3] of 2.07 µM. The IC50 [4] was 10.1 µM, the GI50 [5] was 2 µM and the GI50 [6] was 1.81 µM. It also gave a GI50 [7] of 1.98 µM, a GI50 [8] of 1.27 µM and a GI50 [9] of 5.92 µM. The hemolysis at 0.5 h, 10000 µM [10] was 97.3%, the GI50 [11] was 1.71 µM and the GI50 [12] was 1.5 µM. The Activity [13] was “Non-Toxic”, the GI50 [14] was 1.83 µM and the GI50 [15] was 1.96 µM. For the same compound, the GI50 [16] was 1.38 µM, the IC50 [17] was 1.37 µM and the GI50 [18] was 1.83 µM. It also gave a GI50 [19] of 1.77 µM, a GI50 [20] of 1.73 µM and a GI50 [21] of 1.8 µM. For the same compound, the GI50 [22] was 2.01 µM, the GI50 [24] was 1.66 µM and the GI50 [25] was 1.67 µM. It also gave a GI50 [26] of 1.8 µM, a GI50 [27] of 2.19 µM and a GI50 [28] of 2.12 µM. The GI50 [29] was 1.88 µM, the “fold change (FC)” value [30] was 0.93 and the GI50 [31] was 1.7 µM. The fold change (FC) [32] was 0.2, the GI50 [33] was 2.08 µM and the hemolysis at 0.5 h, 5000 µM [34] was 70.7%. For the same compound, the inhibition of growth at 10 µM [35] was -2.02%, the GI50 [36] was 1.91 µM and the GI50 [37] was 2.19 µM. For the same compound, the Activity [38] was “Active”, the GI50 [39] was 1.96 µM and the GI50 [40] was 1.9 µM. For the same compound, the inhibition [41] was 17.5% and the GI50 [42] was 1.86 µM.
